Data published in ChEMBL document CHEMBL3734705, “Synthesis and in vitro cytotoxicity of novel C-12 substituted-14-deoxy-andrographolide derivatives as potent anti-cancer agents” (2015).

Experiments:
U-251 = experiment: Cytotoxicity against human U251 cells assessed as growth level at 10 uM after 48 hrs by SRB assay; type: functional
K562 [1] = experiment: Cytotoxicity against human K562 cells assessed as growth level at 10 uM after 48 hrs by SRB assay; type: functional
NCI-H23 = experiment: Cytotoxicity against human NCI-H23 cells assessed as growth inhibition at 10 uM after 48 hrs by SRB assay; type: functional; conditions: NCI-H23, 48 h, read-out: GI
[2] = Cytotoxicity against human HOP62 cells assessed as growth level at 10 uM after 48 hrs by SRB assay; type: functional, HOP-62
NCI-H322M = experiment: Cytotoxicity against human NCI-H322M cells assessed as growth level at 10 uM after 48 hrs by SRB assay; type: functional
HT-29 = experiment: Cytotoxicity against human HT-29 cells assessed as growth level at 10 uM after 48 hrs by SRB assay; type: functional
Malme-3M = experiment: Cytotoxicity against human MALME-3M cells assessed as growth level at 10 uM after 48 hrs by SRB assay; type: functional
[3] = Cytotoxicity against human BT549 cells assessed as growth inhibition at 10 uM after 48 hrs by SRB assay; type: functional; conditions: BT-549, 48 h, read-out: GI
[4] = Cytotoxicity against human UO31 cells assessed as growth level at 10 uM after 48 hrs by SRB assay; type: functional, UO-31
[5] = Cytotoxicity against human OVCAR4 cells assessed as growth level at 10 uM after 48 hrs by SRB assay; type: functional, OVCAR-4
[6] = Cytotoxicity against human HOP62 cells assessed as growth inhibition at 10 uM after 48 hrs by SRB assay; type: functional; conditions: HOP-62, 48 h, read-out: GI
[7] = Cytotoxicity against human OVCAR5 cells assessed as growth level at 10 uM after 48 hrs by SRB assay; type: functional, OVCAR-5
[8] = Cytotoxicity against human LOXIMVI cells assessed as growth inhibition at 10 uM after 48 hrs by SRB assay; type: functional; conditions: LOX IMVI, read-out: GI
[9] = Cytotoxicity against human SF268 cells assessed as growth inhibition at 10 uM after 48 hrs by SRB assay; type: functional; conditions: SF-268, 48 h, read-out: GI
786-0 = experiment: Cytotoxicity against human 786-0 cells assessed as growth level at 10 uM after 48 hrs by SRB assay; type: functional
A549 [10] = experiment: Cytotoxicity against human A549 cells assessed as growth inhibition at 10 uM after 48 hrs by SRB assay; type: functional; conditions: A549, 48 h, read-out: GI
NCI-H226 = experiment: Cytotoxicity against human NCI-H226 cells assessed as growth level at 10 uM after 48 hrs by SRB assay; type: functional
[11] = Cytotoxicity against human SF295 cells assessed as growth level at 10 uM after 48 hrs by SRB assay; type: functional, SF-295
[12] = Cytotoxicity against human RPMI8226 cells assessed as growth inhibition at 10 uM after 48 hrs by SRB assay; type: functional; conditions: RPMI-8226, 48 h, read-out: GI
[13] = Cytotoxicity against human SNB19 cells assessed as growth level at 10 uM after 48 hrs by SRB assay; type: functional, SNB-19
SK-MEL-28 = experiment: Cytotoxicity against human SK-MEL-28 cells assessed as growth inhibition at 10 uM after 48 hrs by SRB assay; type: functional; conditions: SK-MEL-28, 48 h, read-out: GI
[14] = Cytotoxicity against human MOLT4 cells assessed as growth inhibition at 10 uM after 48 hrs by SRB assay; type: functional; conditions: MOLT-4, 48 h, read-out: GI
[15] = Cytotoxicity against human RXF393 cells assessed as growth level at 10 uM after 48 hrs by SRB assay; type: functional, RXF 393
NCI-H522 [16] = experiment: Cytotoxicity against human NCI-H522 cells assessed as growth inhibition at 10 uM after 48 hrs by SRB assay; type: functional; conditions: NCI-H522, 48 h, read-out: GI
[17] = Cytotoxicity against human TK10 cells assessed as growth level at 10 uM after 48 hrs by SRB assay; type: functional, TK-10
SR = experiment: Cytotoxicity against human SR cells assessed as growth inhibition at 10 uM after 48 hrs by SRB assay; type: functional; conditions: read-out: GI
T47D = experiment: Cytotoxicity against human T47D cells assessed as growth inhibition at 10 uM after 48 hrs by SRB assay; type: functional; conditions: read-out: GI
[18] = Cytotoxicity against human LOXIMVI cells assessed as growth level at 10 uM after 48 hrs by SRB assay; type: functional, LOX IMVI
[19] = Cytotoxicity against human HCT116 cells assessed as growth inhibition at 10 uM after 48 hrs by SRB assay; type: functional; conditions: HCT-116, 48 h, read-out: GI
[20] = Cytotoxicity against human MOLT4 cells assessed as growth level at 10 uM after 48 hrs by SRB assay; type: functional, MOLT-4
EKVX = experiment: Cytotoxicity against human EKVX cells assessed as growth inhibition at 10 uM after 48 hrs by SRB assay; type: functional; conditions: read-out: GI
[21] = Cytotoxicity against human SW620 cells assessed as growth inhibition at 10 uM after 48 hrs by SRB assay; type: functional; conditions: SW-620, 48 h, read-out: GI
K562 [22] = experiment: Cytotoxicity against human K562 cells assessed as growth inhibition at 10 uM after 48 hrs by SRB assay; type: functional; conditions: K562, 48 h, read-out: GI
[23] = Cytotoxicity against human HOP92 cells assessed as growth level at 10 uM after 48 hrs by SRB assay; type: functional, HOP-92
[24] = Cytotoxicity against human TK10 cells assessed as growth inhibition at 10 uM after 48 hrs by SRB assay; type: functional; conditions: TK-10, 48 h, read-out: GI
[25] = Cytotoxicity against human BT549 cells assessed as growth level at 10 uM after 48 hrs by SRB assay; type: functional, BT-549
[26] = Cytotoxicity against human SF539 cells assessed as growth level at 10 uM after 48 hrs by SRB assay; type: functional, SF-539
[27] = Cytotoxicity against human PC3 cells assessed as growth inhibition at 10 uM after 48 hrs by SRB assay; type: functional; conditions: PC-3, 48 h, read-out: GI
A549 [28] = experiment: Cytotoxicity against human A549 cells assessed as growth level at 10 uM after 48 hrs by SRB assay; type: functional
[29] = Cytotoxicity against human DU145 cells assessed as growth level at 10 uM after 48 hrs by SRB assay; type: functional, DU-145
[30] = Cytotoxicity against human COLO205 cells assessed as growth level at 10 uM after 48 hrs by SRB assay; type: functional, COLO 205
[31] = Cytotoxicity against human Caki1 cells assessed as growth inhibition at 10 uM after 48 hrs by SRB assay; type: functional; conditions: CAKI-1, 48 h, read-out: GI
MDA-MB-468 = experiment: Cytotoxicity against human MDA-MB-468 cells assessed as growth inhibition at 10 uM after 48 hrs by SRB assay; type: functional; conditions: MDA-MB-468, 48 h, read-out: GI
CCRF-CEM = experiment: Cytotoxicity against human CCRF-CEM cells assessed as growth inhibition at 10 uM after 48 hrs by SRB assay; type: functional; conditions: read-out: GI
NCI-H522 [32] = experiment: Cytotoxicity against human NCI-H522 cells assessed as growth level at 10 uM after 48 hrs by SRB assay; type: functional

C=C1CC[C@@H]2[C@](C)(COC(C)=O)[C@H](OC(C)=O)CC[C@@]2(C)[C@@H]1CC(NCCCCCCCC)C1=CCOC1=O (mixture of isomers)
Activity (U-251): 55.53%
Activity (K562 [1]): 34.66%
inhibition of growth at 10 µM (NCI-H23): 29.2%
Activity [2]: 91.97%
Activity (NCI-H322M): 98.01%
Activity (HT-29): 70.47%
Activity (Malme-3M): 84.15%
inhibition of growth at 10 µM [3]: 30.4%
Activity [4]: 56.13%
Activity [5]: 52.34%
inhibition of growth at 10 µM [6]: 8.03%
Activity [7]: 93.23%
inhibition of growth at 10 µM [8]: 46.1%
inhibition of growth at 10 µM [9]: 32.2%
Activity (786-0): 79.87%
inhibition of growth at 10 µM (A549 [10]): 32.8%
Activity (NCI-H226): 65.82%
Activity [11]: 81%
inhibition of growth at 10 µM [12]: 64%
Activity [13]: 78.29%
inhibition of growth at 10 µM (SK-MEL-28): 14.4%
inhibition of growth at 10 µM [14]: 63.5%
Activity [15]: 85.68%
inhibition of growth at 10 µM (NCI-H522 [16]): 35.6%
Activity [17]: 82.68%
inhibition of growth at 10 µM (SR): 63%
inhibition of growth at 10 µM (T47D): 42%
Activity [18]: 53.89%
inhibition of growth at 10 µM [19]: 64.1%
Activity [20]: 36.47%
inhibition of growth at 10 µM (EKVX): 24.3%
inhibition of growth at 10 µM [21]: 27.6%
inhibition of growth at 10 µM (K562 [22]): 65.3%
Activity [23]: 44.59%
inhibition of growth at 10 µM [24]: 17.3%
Activity [25]: 69.6%
Activity [26]: 89.25%
inhibition of growth at 10 µM [27]: 66.4%
Activity (A549 [28]): 67.24%
Activity [29]: 88.73%
Activity [30]: 70.75%
inhibition of growth at 10 µM [31]: 31.3%
inhibition of growth at 10 µM (MDA-MB-468): 68%
inhibition of growth at 10 µM (CCRF-CEM): 52.7%
Activity (NCI-H522 [32]): 64.41%

C=C1CC[C@@H]2[C@](C)(COC(C)=O)[C@H](OC(C)=O)CC[C@@]2(C)[C@@H]1CC(NCc1ccc(F)cc1)C1=CCOC1=O (mixture of isomers)
Activity (U-251): 48.01%
Activity (K562 [1]): 18.84%
inhibition of growth at 10 µM (NCI-H23): 42.1%
Activity [2]: 78.73%
Activity (NCI-H322M): 72.54%
Activity (HT-29): 21.32%
Activity (Malme-3M): 65.1%
inhibition of growth at 10 µM [3]: 71.3%
Activity [4]: 31.26%
Activity [5]: 30.87%
inhibition of growth at 10 µM [6]: 21.2%
Activity [7]: 99%
inhibition of growth at 10 µM [8]: 90.7%
inhibition of growth at 10 µM [9]: 37.4%
Activity (786-0): 86.82%
inhibition of growth at 10 µM (A549 [10]): 42.1%
Activity (NCI-H226): 40.13%
Activity [11]: 96.13%
inhibition of growth at 10 µM [12]: 98.7%
inhibition of growth at 10 µM (SK-MEL-28): 22.2%
inhibition of growth at 10 µM [14]: 0.37%
Activity [15]: 80.59%
inhibition of growth at 10 µM (NCI-H522 [16]): 79.1%
Activity [17]: 66.64%
inhibition of growth at 10 µM (SR): 92.3%
inhibition of growth at 10 µM (T47D): 73.4%
Activity [18]: 9.33%
inhibition of growth at 10 µM [19]: 66.3%
Activity [20]: -0.37%
inhibition of growth at 10 µM (EKVX): 50%
inhibition of growth at 10 µM [21]: 68%
inhibition of growth at 10 µM (K562 [22]): 81.2%
Activity [23]: 18.82%
inhibition of growth at 10 µM [24]: 33.4%
Activity [25]: 28.73%
Activity [26]: 64.45%
inhibition of growth at 10 µM [27]: 79.2%
Activity (A549 [28]): 57.9%
Activity [29]: 69.82%
Activity [30]: 42.15%
inhibition of growth at 10 µM [31]: 54%
inhibition of growth at 10 µM (MDA-MB-468): 72.5%
inhibition of growth at 10 µM (CCRF-CEM): 90.8%
Activity (NCI-H522 [32]): 20.93%
